Laboratory results: patent publication US6566361B2, “Azapirone pain treatment” (priority 1999, dated 2003)

Tests used:
[1] = tested on: albino rats; experiment: Preclinical model of chronic pain (rat formalin test, phase II flinches); type: in vivo; details: single ip delivery: morphine 4 mg/kg, buspirone 3 mg/kg, acetaminophen 300 mg/kg
Experimental: To assess responses to a chronic stimulus (subcutaneous formalin injection), animals are first placed in clear observation boxes for a 30 min acclimation period prior to testing. Animals are subsequently removed and the dorsum of one hindpaw is injected s.c. with 50 microliters of 2.5% formalin. […] The total number of flinches is computer scored during the chronic phase (10-90 min after formalin) using a commercially available device (George Ozaki, Automated Nocicpetion Analyzer, Department of Anesthesiology, University of California, San Diego; La Jolla, Calif.) which automates the manual procedure described previously by Wheeler-Aceto et al. (Pain 40:229-238, 1990). All drugs are delivered at 30 min prior to formalin injection by the intraperitoneal (i.p.) route in a volume of 2 ml/kg. […] For acetaminophen (Sigma, A7085) the vehicle was 40% polyethylene glycol 400 (PEG-400), 10% EtOH, 15% Tween 80, and 35% deionized H2O (PETW). Acetaminophen was disolved sequentially in two parts: 1) first into a solution of 80% PEG 400+20% EtOH, and 2) then slowly added to it was an equal volume of 30% Tween 80+70% deionized H2O (sonicated as needed). Each animal received two injections at time zero. Specifically, animals were tested in one of the following 5 treatment conditions (abbreviations used in figures are shown under ‘Key” below): […]

[2] = tested on: rats; experiment: Preclinical model of neuropathic pain (Chung spinal nerve L5/L6 ligation, von Frey test); type: in vivo, rat; details: buspirone 3 mg/kg ip; acetaminophen 200 mg/kg ip; or both coadministered
Description: J Neurosci Methods. […] For acetaminophen (Sigma, A7085) the vehicle was 40% polyethylene glycol 400 (PEG-400), 10% EtOH, 15% Tween 80, and 35% deionized H2O (PETW). Acetaminophen was disolved sequentially in two parts: 1) first into a solution of 80% PEG 400+20% EtOH, and 2) then slowly added to it was an equal volume of 30% Tween 80+70% deionized H2O (sonicated as needed). Each animal received two injections at time zero.

[3] = tested on: mouse; experiment: Mouse hot plate test (Eddy et al.); type: in vivo; details: buspirone to acetaminophen weight ratios of 1:3, 1:10, and 1:30
[4] = in vivo; cited from earlier work
[5] = acute high doses; cited from earlier work
[6] = in vivo; cited from earlier work; remark: listed apart in the source
[7] = tested on: albino rats; experiment: Rat hindpaw withdrawal (thermal escape) test for analgesia (acute pain); type: in vivo; details: for Hindpaw thermal escape latency from 30 min to 120 min: ipsapirone 20 mg/kg ip, acetaminophen 300 mg/kg ip, or both coadministered, vs vehicle; for Thermal escape latencies vs vehicle, single administration: tandospirone 5 mg/kg ip alone, acetaminophen 300 mg/kg ip alone
Description: To assess the thermally evoked paw-withdrawal response, a commercially available device was used. Specifics of device construction and operation have been published previously (Dirig D M, Salami A, Rathbun M L, Ozaki G T, Yaksh T L. Characterization of variables defining hindpaw withdrawal latency evoked by radiant thermal stimuli. J Neurosci Methods. Oct. 3, 1997; 76(2):183-91). This device is comprised of a glass surface on which the rats were placed individually in Plexiglas cubicles (9×22×25 cm). The surface is maintained at 30° C. by a feedback-controlled, under-glass, forced-air heating system. The thermal nociceptive stimulus originates from a projection bulb below the glass that can be manipulated in a two-dimensional axis on ball bearing slides. This apparatus allows the stimulus to be delivered separately to each hind paw with the aid of an angled mirror mounted on the stimulus source. A timer is actuated with the light source, and escape latency is defined as the time between stimulus onset and the display of a brisk paw withdrawal (detected by photodiode motion sensors that stops the timer and terminates the stimulus; cut-off time for a non-response is 20 sec which triggers automatic termination of the stimulus). In the present study, animals are placed in test boxes for 30 min acclimation and then baseline escape latency is assessed separately for each hindpaw (left and right) at −15 min. All drugs are delivered at 0 min by the intraperitoneal (i.p.) route in a volume of 3 ml/kg. […] For acetaminophen (Sigma, A7085) the vehicle was 40% polyethylene glycol 400 (PEG-400), 10% EtOH, 15% Tween 80, and 35% deionized H2O (PETW). Acetaminophen was disolved sequentially in two parts: 1) first into a solution of 80% PEG 400+20% EtOH, and 2) then slowly added to it was an equal volume of 30% Tween 80+70% deionized H2O (sonicated as needed). Other azapirone vehicles were Gepirone (saline), ipsapirone (deionized H2O), and tandospirone (DMA+PETW), DMA=5% dimethylacetamide. Each animal received two injections at time zero. Specifically, animals were tested in one of the following 10 treatment conditions (abbreviations used in figures are shown under ‘Key” below):
Following drug administration, thermal escape latencies are measured at regular intervals (e.g., 15, 30, 60, 90 and 120 min, mean of both paws is used for statistical analysis).

[8] = Rat plasma concentrations of buspirone and APAP over time; type: in vivo
Description: It also has agonistic action at presynaptic D2 dopaminergic receptors. Acetaminophen is believed to act by elevating the pain threshold in patients.

Molecule: 8-[4-[4-(2-pyrimidinyl)1-piperazinyl]butyl-8-azaspiro(4,5)-decane-7,9-dione [buspirone]
- Formalin-induced flinches relative to vehicle [1]: significantly suppressed
- von Frey thresholds, injured side (neuropathic pain responses) [2]: not significantly different from vehicle
- Potentiation of acetaminophen in hot plate test [3]: demonstrated potentiation of acetaminophen
- Type of analgesia produced [4]: non-opioid type of analgesia
- Relief of neuropathic pain [5]: did not relieve neuropathic pain
- Effect on xylazine-induced antinociception [6]: attenuate xylazine-induced antinociception

Molecule: CC(=O)Nc1ccc(O)cc1 [acetaminophen]
- Hindpaw thermal escape response, Area Under the Curve (AUC) from thermal escape latencies (sec) over 120 min post injection ([7]; acetaminophen 300 mg/kg ip, compared to vehicle): elevated significantly above vehicle
- Hindpaw thermal escape latency from 30 min to 120 min [7]: a comparably high level of analgesia was not consistently attached throughout this same time period
- Thermal escape latencies vs vehicle, single administration [7]: did not differ from vehicle until 90 min after injection
- Formalin-induced flinches relative to vehicle [1]: significantly suppressed
- von Frey thresholds, injured side (neuropathic pain responses) [2]: partial reversal toward normal at 30-120 min
- Plasma concentrations over time, alone vs in combination [8]: do not differ significantly whether given alone or in combination

Molecule: O=C1c2ccccc2S(=O)(=O)N1CCCCN1CCN(c2ncccn2)CC1 [ipsapirone]
- Hindpaw thermal escape latency from 30 min to 120 min [7]: a comparably high level of analgesia was not consistently attached throughout this same time period

Molecule: CN1CC[C@]23c4c5ccc(O)c4O[C@H]2[C@@H](O)C=C[C@H]3[C@H]1C5 [morphine]
- Formalin-induced flinches relative to vehicle [1]: significantly suppressed

Molecule: O=C1[C@@H]2[C@H]3CC[C@H](C3)[C@@H]2C(=O)N1CCCCN1CCN(c2ncccn2)CC1 [tandospirone]
- Thermal escape latencies vs vehicle, single administration [7]: did not differ from vehicle until 90 min after injection
